Values of other authors, collected in paper PMC9668914, “Understanding VPAC receptor family peptide binding and selectivity” (Nature Communications, 2022).

Target: T1, PAC1R (Homo sapiens, UniProt P41586)
T1 construct: An HA signal peptide was inserted in place of the native signal peptide of the receptors; HA signal peptide (replaces the native signal peptide) (N); 3C protease cleavage sites (between FLAG and receptor, and between receptor and His) (internal); expressed in transfected cells; host or cells: COS-7 (transient, PEI)
T1 sequence (P41586 21-468): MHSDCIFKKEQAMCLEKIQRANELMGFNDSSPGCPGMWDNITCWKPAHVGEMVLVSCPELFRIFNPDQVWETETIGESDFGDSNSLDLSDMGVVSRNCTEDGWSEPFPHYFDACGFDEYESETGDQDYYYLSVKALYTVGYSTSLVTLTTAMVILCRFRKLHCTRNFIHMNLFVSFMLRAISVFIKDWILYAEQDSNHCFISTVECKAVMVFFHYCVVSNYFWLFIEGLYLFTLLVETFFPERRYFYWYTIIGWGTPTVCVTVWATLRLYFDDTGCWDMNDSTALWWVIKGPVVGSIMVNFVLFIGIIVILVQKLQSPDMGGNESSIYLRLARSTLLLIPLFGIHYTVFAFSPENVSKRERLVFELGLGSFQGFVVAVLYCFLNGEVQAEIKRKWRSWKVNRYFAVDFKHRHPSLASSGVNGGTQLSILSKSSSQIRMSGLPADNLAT
Design: method as in PMID 8995389
Conditions: cited from earlier work

maxadilan
agonist selectivity: PAC1R-selective agonist
